Reference: article PMC11062899, “De novo development of small cyclic peptides that are orally bioavailable” (Nature Chemical Biology, 2023)
Where “and” joins values, the source holds several entries; their conditions need not be identical. Equal values may be shown once. Read-outs that look alike come from different tables or passages of the source.

What was measured:
rat α-thrombin = target: T1, rat α-thrombin (Rattus norvegicus, UniProt P18292); experiment: Protease inhibition, Ki for rat α-thrombin (fluorogenic substrate Z-Gly-Gly-Arg-AMC); type: biochemical; conditions: for Rat alpha thrombin inhibition, slope normalized to DMSO: replicates R1-R3
T1 construct: rat α-thrombin (Molecular Innovations) were used at final concentrations of 2 nM and 3 nM; purchased Molecular Innovations
Method: (§1) The inhibition constants (Ki) of cyclic peptides were calculated by measuring thrombin inhibition in the presence of different concentrations of the cyclic peptides. […] Human α-thrombin (Molecular Innovations) and rat α-thrombin (Molecular Innovations) were used at final concentrations of 2 nM and 3 nM, respectively, and fluorogenic substrate (Z-Gly-Gly-Arg-AMC, Bachem) was used at a concentration of 50 μM. Enzymatic activity was determined by measuring fluorescent gain on a Tecan Infinite M200 Pro microplate reader (excitation: 360 nm, emission: 465 nm) or a PHERAstar FSX microplate reader (excitation: 380 nm, emission: 440 nm) for 30 min at 25 °C with a fluorescent readout every 3 min. The two instruments were controlled with Tecan Infinite M200 Pro instrument software (iControl, version 1.12) and PHERAstar FSX software (version 5.70, edition 8), respectively. Protease inhibition was calculated by comparing the enzymatic activity to a control without cyclic peptide.
(§2) Half maximal inhibitory concentration (IC50) values were determined using a four-parameter logistic regression model in GraphPad Prism 9 to fit sigmoidal curves to the acquired data points according to equation (2) below.2 y=b+a−b/1+10^(logIC50−x)p where a and b represent the measured inhibition maximum and minimum, respectively; x is the logarithm of peptide concentration; y is the thrombin activity compared to a control without the cyclic peptide; and p is the Hill coefficient.
(§3) Ki values were calculated using the IC50 and the Cheng–Prusoff equation (equation (3)).3 Ki=IC50/1+S0/Km where Km is the Michaelis–Menten constant of the enzyme for the substrate used in the assay, and [S]0 is the initial substrate concentration.

[1] = Passive artificial membrane permeability (PAMPA);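 for Permeability% Average: top well sample relative to theoretical equilibrium sample by TIC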
human α-thrombin = human α-thrombin (Homo sapiens, UniProt P00734); experiment: Protease inhibition, Ki for human α-thrombin (fluorogenic substrate Z-Gly-Gly-Arg-AMC); type: biochemical; conditions: for Human alpha thrombin inhibition, slope normalized to DMSO: replicates R1-R3
Method: as §1, §2, §3

[2] = peptide concentration 1.00E+02 uM
[3] = peptide concentration 1.19E-05 uM
[4] = peptide concentration 1.22E-02 uM
[5] = peptide concentration 1.25E+01 uM
[6] = peptide concentration 1.53E-03 uM
[7] = peptide concentration 1.56E+00 uM
[8] = peptide concentration 1.91E-04 uM
[9] = peptide concentration 1.95E-01 uM
[10] = peptide concentration 2.38E-05 uM
[11] = peptide concentration 2.44E-02 uM
[12] = peptide concentration 2.50E+01 uM
[13] = peptide concentration 3.05E-03 uM
[14] = peptide concentration 3.12E+00 uM
[15] = peptide concentration 3.81E-04 uM
[16] = peptide concentration 3.91E-01 uM
[17] = peptide concentration 4.77E-05 uM
[18] = peptide concentration 4.88E-02 uM
[19] = peptide concentration 5.00E+01 uM
[20] = peptide concentration 6.10E-03 uM
[21] = peptide concentration 6.25E+00 uM
[22] = peptide concentration 7.63E-04 uM
[23] = peptide concentration 7.81E-01 uM
[24] = peptide concentration 9.54E-05 uM
[25] = peptide concentration 9.77E-02 uM

## O=C1C[C@H]2CCCN2C(=O)[C@H](Cc2ccccc2)NC(=O)[C@@H](NC(=O)c2ccc(Cl)s2)CCC=CCCCN1 [compound 41]
Rat α-thrombin; average of R1-R3, read-out: Rat alpha thrombin inhibition, Ki Average
  Ki: 180 nM
Rat α-thrombin; [2]
  Rat alpha thrombin inhibition, slope normalized to DMSO: 5.3 and 5.7 and 4.1
Rat α-thrombin; [3]
  Rat alpha thrombin inhibition, slope normalized to DMSO: 101.7 and 102.1 and 101.8
Rat α-thrombin; [4]
  Rat alpha thrombin inhibition, slope normalized to DMSO: 87.5 and 92.0 and 84.9
Rat α-thrombin; [5]
  Rat alpha thrombin inhibition, slope normalized to DMSO: 9.2 and 8.7 and 7.8
Rat α-thrombin; [6]
  Rat alpha thrombin inhibition, slope normalized to DMSO: 94.8 and 97.7 and 92.4
Rat α-thrombin; [7]
  Rat alpha thrombin inhibition, slope normalized to DMSO: 25.0 and 25.1 and 31.0
Rat α-thrombin; [8]
  Rat alpha thrombin inhibition, slope normalized to DMSO: 106.1 and 99.6 and 88.4
Rat α-thrombin; [9]
  Rat alpha thrombin inhibition, slope normalized to DMSO: 69.0 and 50.2 and 49.8
Rat α-thrombin; [10]
  Rat alpha thrombin inhibition, slope normalized to DMSO: 103.2 and 98.1 and 102.8
Rat α-thrombin; [11]
  Rat alpha thrombin inhibition, slope normalized to DMSO: 92.3 and 89.1 and 86.1
Rat α-thrombin; [12]
  Rat alpha thrombin inhibition, slope normalized to DMSO: 4.2 and 6.8 and 8.8
Rat α-thrombin; [13]
  Rat alpha thrombin inhibition, slope normalized to DMSO: 99.2 and 99.8 and 88.1
Rat α-thrombin; [14]
  Rat alpha thrombin inhibition, slope normalized to DMSO: 8.2 and 23.7 and 18.2
Rat α-thrombin; [15]
  Rat alpha thrombin inhibition, slope normalized to DMSO: 107.3 and 92.0 and 81.7
Rat α-thrombin; [16]
  Rat alpha thrombin inhibition, slope normalized to DMSO: 38.0 and 46.4 and 45.2
Rat α-thrombin; [17]
  Rat alpha thrombin inhibition, slope normalized to DMSO: 102.3 and 101.4 and 86.4
Rat α-thrombin; [18]
  Rat alpha thrombin inhibition, slope normalized to DMSO: 83.5 and 87.2 and 79.0
Rat α-thrombin; [19]
  Rat alpha thrombin inhibition, slope normalized to DMSO: 3.7 and 8.5 and 7.9
Rat α-thrombin; [20]
  Rat alpha thrombin inhibition, slope normalized to DMSO: 92.6 and 94.8 and 84.9
Rat α-thrombin; [21]
  Rat alpha thrombin inhibition, slope normalized to DMSO: 13.6 and 12.8 and 13.7
Rat α-thrombin; [22]
  Rat alpha thrombin inhibition, slope normalized to DMSO: 102.3 and 100.6 and 67.7
Rat α-thrombin; [23]
  Rat alpha thrombin inhibition, slope normalized to DMSO: 42.8 and 23.4 and 43.3
Rat α-thrombin; [24]
  Rat alpha thrombin inhibition, slope normalized to DMSO: 92.9 and 92.2 and 96.6
Rat α-thrombin; [25]
  Rat alpha thrombin inhibition, slope normalized to DMSO: 73.2 and 69.4 and 67.8
Rat α-thrombin; single replicates R1-R3, read-out: Rat alpha thrombin inhibition, IC50
  IC50: 326 nM and 228 nM and 420 nM
Rat α-thrombin; single replicates R1-R3, read-out: Rat alpha thrombin inhibition, Ki
  Ki: 180 nM (2×) and 126 nM (2×) and 232 nM (2×)
[1]; 50 μM, 12–18 h, acceptor concentration relative to equilibrium
  PAMPA permeability: % permeability: 64 ± 11%
[1]; 50 μM, 13 h (Fig. 5d)
  Permeability% (single replicates R1–R3): 76.34% and 63.06% and 53.71%
  Permeability% Average: 64.4%
[1]; PAMPA, pH 7.4
  Papp at 50 μM: 9.33 ×10⁻⁶ cm/s
Human α-thrombin; average of R1-R3, read-out: Human alpha thrombin inhibition, Ki Average
  Ki: 1570 nM
Human α-thrombin; [2]
  Human alpha thrombin inhibition, slope normalized to DMSO: 9.8 and 10.5 and 10.6
Human α-thrombin; [3]
  Human alpha thrombin inhibition, slope normalized to DMSO: 108.3 and 123.2 and 86.4
Human α-thrombin; [4]
  Human alpha thrombin inhibition, slope normalized to DMSO: 81.6 and 60.4 and 71.9
Human α-thrombin; [5]
  Human alpha thrombin inhibition, slope normalized to DMSO: 16.2 and 18.0 and 13.2
Human α-thrombin; [6]
  Human alpha thrombin inhibition, slope normalized to DMSO: 102.7 and 105.3 and 96.0
Human α-thrombin; [7]
  Human alpha thrombin inhibition, slope normalized to DMSO: 60.1 and 45.1 and 57.4
Human α-thrombin; [8]
  Human alpha thrombin inhibition, slope normalized to DMSO: 110.2 and 100.0 and 95.6
Human α-thrombin; [9]
  Human alpha thrombin inhibition, slope normalized to DMSO: 90.5 and 54.5 and 66.4
Human α-thrombin; [10]
  Human alpha thrombin inhibition, slope normalized to DMSO: 111.1 and 102.0 and 98.3
Human α-thrombin; [11]
  Human alpha thrombin inhibition, slope normalized to DMSO: 60.0 and 83.9 and 99.7
Human α-thrombin; [12]
  Human alpha thrombin inhibition, slope normalized to DMSO: 16.8 and 4.9 and 12.0
Human α-thrombin; [13]
  Human alpha thrombin inhibition, slope normalized to DMSO: 65.1 and 103.9 and 92.0
Human α-thrombin; [14]
  Human alpha thrombin inhibition, slope normalized to DMSO: 47.1 and 40.3 and 37.6
Human α-thrombin; [15]
  Human alpha thrombin inhibition, slope normalized to DMSO: 113.9 and 97.1 and 98.1
Human α-thrombin; [16]
  Human alpha thrombin inhibition, slope normalized to DMSO: 59.1 and 81.1 and 60.5
Human α-thrombin; [17]
  Human alpha thrombin inhibition, slope normalized to DMSO: 106.6 and 104.5 and 98.0
Human α-thrombin; [18]
  Human alpha thrombin inhibition, slope normalized to DMSO: 96.4 and 58.3 and 94.8
Human α-thrombin; [19]
  Human alpha thrombin inhibition, slope normalized to DMSO: 14.2 and 14.0 and 12.9
Human α-thrombin; [20]
  Human alpha thrombin inhibition, slope normalized to DMSO: 78.1 and 71.3 and 72.1
Human α-thrombin; [21]
  Human alpha thrombin inhibition, slope normalized to DMSO: 15.4 and 28.4 and 22.2
Human α-thrombin; [22]
  Human alpha thrombin inhibition, slope normalized to DMSO: 61.4 and 105.9 and 50.7
Human α-thrombin; [23]
  Human alpha thrombin inhibition, slope normalized to DMSO: 75.8 and 62.9 and 64.9
Human α-thrombin; [24]
  Human alpha thrombin inhibition, slope normalized to DMSO: 104.3 and 61.9 and 103.5
Human α-thrombin; [25]
  Human alpha thrombin inhibition, slope normalized to DMSO: 84.6 and 105.9 and 85.2
Human α-thrombin; single replicates R1-R3, read-out: Human alpha thrombin inhibition, IC50
  IC50: 2700 nM and 1730 nM and 1690 nM
Human α-thrombin; single replicates R1-R3, read-out: Human alpha thrombin inhibition, Ki
  Ki: 2.08 µM (2×) and 1.34 µM (2×) and 1.3 µM (2×)
